Several values for one entry are separate records, joined by “and”; a condition that tells them apart may be missing. Identical values can stand only once. Numbers after ± are expanded uncertainties.
Conditions: Crystal, Torsion effusion method

[Cl][Yb]([Cl])[Cl] [ytterbium trichloride]
Conditions	vapor or sublimation pressure
944 K	0.000158 ± 2.1e-05 kPa
950 K	0.000126 ± 1e-06 kPa
952 K	0.000126 ± 1e-06 kPa
953 K	0.000158 ± 3.2e-05 kPa
958 K	0.000158 ± 3e-05 kPa and 0.000282 ± 2.5e-05 kPa
961 K	0.000219 ± 2.9e-05 kPa
962 K	0.000191 ± 2.2e-05 kPa
966 K	0.000191 ± 1.3e-05 kPa and 0.000251 ± 1.1e-05 kPa
970 K	0.000251 ± 3.8e-05 kPa
972 K	0.000251 ± 3.8e-05 kPa
974 K	0.000347 ± 3.7e-05 kPa and 0.000316 ± 3.7e-05 kPa
975 K	0.000316 ± 5.2e-05 kPa and 0.000501 ± 5.2e-05 kPa
976 K	0.000282 ± 4.6e-05 kPa
980 K	0.00038 ± 3.3e-05 kPa
981 K	0.00038 ± 5e-05 kPa
982 K	0.000437 ± 9.1e-05 kPa and 0.00038 ± 9.3e-05 kPa
983 K	0.000437 ± 9.2e-05 kPa
986 K	0.000407 ± 6.7e-05 kPa
990 K	0.000603 ± 6.1e-05 kPa and 0.000468 ± 5.9e-05 kPa and 0.000537 ± 6e-05 kPa
992 K	0.000562 ± 0.00011 kPa
993 K	0.000871 ± 0.00011 kPa
994 K	0.000631 ± 0.00011 kPa
996 K	0.000631 ± 4.3e-05 kPa
999 K	0.000759 ± 7.9e-05 kPa and 0.000692 ± 8.1e-05 kPa
1000 K	0.000794 ± 8.1e-05 kPa and 0.000759 ± 8e-05 kPa
1001 K	0.000724 ± 0.00014 kPa
1005 K	0.000851 ± 7.3e-05 kPa and 0.001349 ± 7.3e-05 kPa
1007 K	0.001 ± 0.00013 kPa
1008 K	0.000912 ± 0.00013 kPa
1010 K	0.000977 ± 0.00013 kPa and 0.001 ± 0.00013 kPa
1015 K	0.001175 ± 0.00015 kPa and 0.00123 ± 0.00015 kPa
1016 K	0.001413 ± 0.00016 kPa
1017 K	0.00123 ± 0.00016 kPa and 0.001905 ± 0.00017 kPa
1019 K	0.001318 ± 0.00016 kPa
1020 K	0.001349 ± 0.00016 kPa and 0.001549 ± 0.00016 kPa
1023 K	0.001514 ± 0.00016 kPa
1026 K	0.001622 ± 0.00023 kPa
1029 K	0.001698 ± 0.00022 kPa
1030 K	0.002884 ± 0.00026 kPa
1035 K	0.002188 ± 2.2e-05 kPa
1036 K	0.002089 ± 3.6e-05 kPa and 0.002344 ± 4.2e-05 kPa and 0.002239 ± 4e-05 kPa
1038 K	0.002239 ± 6.9e-05 kPa and 0.002188 ± 7.1e-05 kPa
1044 K	0.002692 ± 0.00038 kPa and 0.00302 ± 0.00038 kPa and 0.004571 ± 0.00038 kPa
1046 K	0.002884 ± 0.00044 kPa
1048 K	0.00302 ± 0.0004 kPa
1050 K	0.003388 ± 0.00041 kPa
1052 K	0.003802 ± 0.00044 kPa
1053 K	0.003802 ± 0.0006 kPa
1054 K	0.003981 ± 0.0006 kPa
1055 K	0.003802 ± 0.00059 kPa and 0.006761 ± 0.00048 kPa
1057 K	0.004074 ± 0.00053 kPa
1062 K	0.005129 ± 0.0005 kPa and 0.005012 ± 0.0005 kPa
1063 K	0.004677 ± 0.00052 kPa and 0.004898 ± 0.00052 kPa and 0.005012 ± 0.00051 kPa
1064 K	0.004898 ± 0.00052 kPa
1071 K	0.005888 ± 0.00092 kPa and 0.006761 ± 0.00091 kPa and 0.006918 ± 0.00091 kPa
1072 K	0.00631 ± 0.00091 kPa and 0.006918 ± 0.00091 kPa and 0.006457 ± 0.00091 kPa
1079 K	0.008318 ± 0.00098 kPa
1081 K	0.008913 ± 0.001 kPa and 0.00912 ± 0.001 kPa
1082 K	0.00871 ± 0.00098 kPa
1087 K	0.01 ± 0.0014 kPa
1088 K	0.01202 ± 0.0013 kPa and 0.01148 ± 0.0013 kPa
1090 K	0.01202 ± 0.0014 kPa
1096 K	0.01349 ± 0.00098 kPa
